Values of other authors, collected in patent US6770295B1 (Pharmacia AB, priority 1998, dated 2004).

Conditions: following oral administration

duration: three to six
SMILES: CCN(CC)CC#CCOC(=O)C(O)(c1ccccc1)C1CCCCC1 (racemic) [Oxybutynin, 4-diethylamino-2-butynyl-phenylcyclohexylglycolate]
